By IC50 is commonly meant the midpoint of a concentration-inhibition curve.

Some results are limits rather than exact numbers.

One assay deals with EP300 BRD (Homo sapiens (Human), UniProt Q09472). Put plainly: EP300 AlphaScreen bromodomain (BRD) binding test. As to the method:
(§1) CBP and EP300AlphaScreen Test:
(§2) • 1. Prepare 1× concentration of test buffer • 2. Preparation of compound
(§3) The compound was firstly diluted in a ratio of 1:1000 relative to the final concentration using a Precision automatic sampler (by 3× gradient dilution method): • 1) 50 μL of compound solution with a storage concentration of 10 mM was transferred to A2 well of a 96-well plate using an Echo automatic sampler. • 2) 30 μL of DMSO was transferred to well A1, and wells A3 to A12 with Precision™. • 3) 15 μL solution was transferred from A2 to A3 by Precision, and this operation was sequentially repeated until 15 μL solution was transferred from well A10 to well A11. Thus, a 1:3 gradient dilution was completed. • 4) The compound plate was centrifuged at a speed of 1000 r/min for one minute. • 3. Preparation of test plate
(§4) 20 nL of solution was transferred from each concentration well of the compound plate to the test plate using an Echo automatic sampler: from well A1 of the preparation plate to wells A1 and A2 of the test plate, and from well A2 of the preparation plate to wells A3 and A4 of the test plate. • 4. Binding test of bromodomain (BRD) • 1) Preparation of 2-fold solution of protein and polypeptide
(§5) The protein and polypeptide were dissolved in a 1× concentration of detection buffer. • 2) 10 μL of protein and polypeptide solution was transferred to each well in columns 3 to 24 in the test plate, and 10 μL of 1× test buffer was transferred to wells in columns 1 to 2 in the test plate as negative control. • 3) The test plate was centrifuged at a speed of 1000 r/min for one minute. • 4) The test plate was incubated at room temperature for 15 min. • 5) A 2-fold receptor and donor solution was prepared by dissolving acceptor and donor beads with one-fold test buffer. • 6) 2-fold receptor and donor solutions were transferred to the test plate.
(§6) 15 μL of acceptor and donor solution was added and light was avoided. • 7) The test plate was centrifuged at a speed of 1000 r/min for one minute and then incubated at room temperature for 60 min. • 5. The Endpoints were Read in EnSpire and Alpha Modes. • 6. Curve fitting
(§7) The experimental data was entered into an Excel document and the inhibition rate Inh % was calculated using equation (1): Inh %=(Max−Signal)/(Max−Min)×100 Equation (1): wherein, Max: control containing DMSO, Min: low control containing DMSO,
(§8) The obtained data were entered into the XL-Fit software, and the IC50 value was calculated using equation (2): Y=Bottom+(Top−Bottom)/(1+10^((Log IC50−X)×Hill Slope)) Equation (2): II. Experimental Results
On the technique in general: Alpha assays give light when donor and acceptor beads are brought close together.

The test system of another assay is OPM-2. Put plainly: Proliferation of OPM-2 multiple myeloma cells (CCK-8). It is filed as cell-based. As to conditions: Homo sapiens; multiple myeloma cell line OPM-2; read-out: IC50 against OPM-2. As to the method:
(§9) • (1) CWR22RV1 prostate cancer cells were subcultured in cell culture medium, and well-grown cells were inoculated into 96-well plates with 80 μL per well and 1500 cells per well, and then the plate was cultured overnight at 37° C. in a 5% CO2 incubator. • (2) Drug was prepared as 30 mM of stock solution with dimethylsulfoxide (DMSO). Prior to use, the stock solution was diluted in a ratio of 1:3 with DMSO and then further diluted in a ratio of 1:3 to obtain 9 gradient concentrations. Each concentration of compound was diluted in a ratio of 1:200 with culture medium (to ensure the concentration of DMSO in the culture system was 0.1%). Two wells were set for each concentration. 20 μL of diluted compound solution was added to the cell culture well (with a final concentration of 10 μM, 3.3 μM, 1.1 μM, etc.), and then the plate was gently shaken to mix well. In addition, three negative control wells containing only cells and three blank control wells containing only culture medium (6 wells being each added with DMSO diluted in a ratio of 1:200 using 20 μL of culture medium) were included. 2. Test Results: • (1) After the plate was cultured for 6 days, 10 μL of CCK-8 was added to each well, and then the plate was continually cultured in a 5% CO2 incubator at 37° C. for 2.5 h. • (2) The absorbance (OD value) was measured at 450 nm with a microplate reader. • (3) Data were analyzed using the Dose-response-inhibition equation in the software GraphPad Prisms 6 to obtain IC50 values. 3. Experimental Results
(§10) Using the same method as in Example 2, CWR22RV1 cells were replaced with tumor cells in Table 3, and for the inhibitory activities against these tumor cells, the IC50 values (nM) of the compounds according to the present invention were tested and calculated.

In the next assay the test system is MCF-7. Put plainly: Proliferation of MCF-7 breast cancer cells (CCK-8). The assay is classed as cell-based. To be noted: Homo sapiens, MCF7; breast cancer cell line MCF-7; read-out: IC50 against MCF-7. As to the method: as §9, §10
In the next assay the target is CBP BRD (Homo sapiens (Human), UniProt Q92793). Put plainly: CBP AlphaScreen bromodomain (BRD) binding test. As to the method: as §1, §2, §3, §4, §5, §6, §7, §8
CBP BRD, sequence (Q92793 1085-1192): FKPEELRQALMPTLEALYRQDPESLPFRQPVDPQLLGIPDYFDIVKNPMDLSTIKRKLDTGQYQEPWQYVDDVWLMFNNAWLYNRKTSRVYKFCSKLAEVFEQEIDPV
The next assay relates to VCAP. Briefly: Proliferation of VCAP prostate cancer cells (CCK-8). The assay is classed as cell-based. As to conditions: Homo sapiens; prostate cancer cell line VCAP; read-out: IC50 against VCAP. The protocol: as §9, §10

EP300 BRD, sequence (Q09472 1049-1156): as the sequence (Q92793 1085-1192) above, with N47S, V73I, F93Y, A98S counted along it

Turning to `CCO[C@H]1CC[C@H](n2c([C@@H]3CCOC(=O)N3c3ccc(Cl)c(F)c3)nc3cc(-c4c(C)noc4C)ccc32)CC1` [Compound 172, (S)-3-(4-chloro-3-fluorophenyl)-4-(5-(3,5-dimethylisoxazol-4-yl)-1-((trans)-4-ethoxycyclohexyl)-1H-benzo[d]imidazol-2-yl)-1,3-oxazinane-2-one], the half-maximal inhibitory concentration (IC50) on EP300 BRD was 2.1 nM; in the assay on OPM-2, less than 500 nM; in the assay with MCF-7, less than 500 nM; on CBP BRD, 2.3 nM; in the assay on VCAP, less than 500 nM.

Source of the values: patent US12497392B2, “EP300/CBP inhibitor” (HINOVA PHARMACEUTICALS INC., priority 2019, dated 2025).
